The values that follow come from ChEMBL document CHEMBL5291721, “A preclinical secondary pharmacology resource illuminates target-adverse drug reaction associations of marketed drugs” (Nat Commun, 2023).

In test [1] the target is Estrogen receptor beta (Homo sapiens, UniProt Q92731).
In test [2] the target is T1, Glucocorticoid receptor (Homo sapiens, UniProt P04150).
T1 sequence (P04150 whole entry): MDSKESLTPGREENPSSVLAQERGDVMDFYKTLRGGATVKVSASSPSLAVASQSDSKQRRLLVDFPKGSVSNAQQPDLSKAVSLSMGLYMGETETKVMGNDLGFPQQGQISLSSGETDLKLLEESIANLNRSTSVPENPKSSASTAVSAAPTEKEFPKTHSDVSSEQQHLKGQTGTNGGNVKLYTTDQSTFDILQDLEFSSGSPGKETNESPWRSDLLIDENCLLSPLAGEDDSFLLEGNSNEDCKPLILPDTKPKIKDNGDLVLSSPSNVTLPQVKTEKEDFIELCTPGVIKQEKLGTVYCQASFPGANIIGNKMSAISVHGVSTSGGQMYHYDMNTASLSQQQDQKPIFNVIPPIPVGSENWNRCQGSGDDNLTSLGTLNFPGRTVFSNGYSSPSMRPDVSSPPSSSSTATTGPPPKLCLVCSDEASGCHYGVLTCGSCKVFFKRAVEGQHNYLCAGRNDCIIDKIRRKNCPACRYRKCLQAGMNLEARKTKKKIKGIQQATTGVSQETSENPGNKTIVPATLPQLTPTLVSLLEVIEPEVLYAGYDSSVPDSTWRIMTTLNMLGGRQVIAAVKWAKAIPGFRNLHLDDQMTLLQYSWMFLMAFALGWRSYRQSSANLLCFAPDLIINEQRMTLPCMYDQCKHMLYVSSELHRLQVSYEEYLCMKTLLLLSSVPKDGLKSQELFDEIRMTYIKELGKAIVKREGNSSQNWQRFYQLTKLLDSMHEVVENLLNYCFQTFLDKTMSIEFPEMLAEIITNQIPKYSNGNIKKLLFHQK
In kind it is functional.

Test [3] has as its target Voltage-dependent L-type calcium channel subunit alpha-1C (Homo sapiens, UniProt Q13936). The test is classed as functional, cell-based.
Test [4] concerns the target T2, Muscarinic acetylcholine receptor M5 (Homo sapiens, UniProt P08912).
T2 sequence (P08912 whole entry): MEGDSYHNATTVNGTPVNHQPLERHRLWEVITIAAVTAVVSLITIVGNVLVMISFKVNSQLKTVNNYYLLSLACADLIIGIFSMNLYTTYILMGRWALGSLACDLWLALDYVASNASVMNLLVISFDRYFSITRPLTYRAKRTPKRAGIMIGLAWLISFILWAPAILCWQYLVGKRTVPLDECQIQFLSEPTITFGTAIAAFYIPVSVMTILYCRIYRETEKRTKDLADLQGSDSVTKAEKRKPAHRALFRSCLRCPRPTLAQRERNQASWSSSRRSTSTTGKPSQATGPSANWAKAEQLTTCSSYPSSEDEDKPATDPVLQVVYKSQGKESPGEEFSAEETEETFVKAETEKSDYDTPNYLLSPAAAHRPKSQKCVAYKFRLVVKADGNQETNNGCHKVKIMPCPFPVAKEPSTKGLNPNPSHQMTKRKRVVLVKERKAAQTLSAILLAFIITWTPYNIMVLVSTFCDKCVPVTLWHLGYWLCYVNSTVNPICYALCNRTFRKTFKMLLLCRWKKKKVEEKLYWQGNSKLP

Test [5] has as its target D(1B) dopamine receptor (Homo sapiens, UniProt P21918).
In test [6] the target is 5-hydroxytryptamine receptor 5A (Homo sapiens, UniProt P47898).
Test [7] addresses T3, Type-1 angiotensin II receptor (Homo sapiens, UniProt P30556).
T3 sequence (P30556 whole entry): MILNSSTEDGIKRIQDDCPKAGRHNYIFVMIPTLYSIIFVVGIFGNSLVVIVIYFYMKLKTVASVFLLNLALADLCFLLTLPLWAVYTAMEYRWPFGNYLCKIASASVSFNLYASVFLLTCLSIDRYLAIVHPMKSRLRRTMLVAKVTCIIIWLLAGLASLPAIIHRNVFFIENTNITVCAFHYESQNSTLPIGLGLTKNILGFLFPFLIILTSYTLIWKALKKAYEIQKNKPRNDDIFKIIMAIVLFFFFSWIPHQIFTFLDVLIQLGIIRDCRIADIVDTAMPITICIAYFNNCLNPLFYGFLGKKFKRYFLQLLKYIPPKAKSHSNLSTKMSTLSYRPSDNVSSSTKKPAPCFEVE

Test [8] has as its target T4, Muscarinic acetylcholine receptor M4 (Homo sapiens, UniProt P08173).
T4 sequence (P08173 whole entry): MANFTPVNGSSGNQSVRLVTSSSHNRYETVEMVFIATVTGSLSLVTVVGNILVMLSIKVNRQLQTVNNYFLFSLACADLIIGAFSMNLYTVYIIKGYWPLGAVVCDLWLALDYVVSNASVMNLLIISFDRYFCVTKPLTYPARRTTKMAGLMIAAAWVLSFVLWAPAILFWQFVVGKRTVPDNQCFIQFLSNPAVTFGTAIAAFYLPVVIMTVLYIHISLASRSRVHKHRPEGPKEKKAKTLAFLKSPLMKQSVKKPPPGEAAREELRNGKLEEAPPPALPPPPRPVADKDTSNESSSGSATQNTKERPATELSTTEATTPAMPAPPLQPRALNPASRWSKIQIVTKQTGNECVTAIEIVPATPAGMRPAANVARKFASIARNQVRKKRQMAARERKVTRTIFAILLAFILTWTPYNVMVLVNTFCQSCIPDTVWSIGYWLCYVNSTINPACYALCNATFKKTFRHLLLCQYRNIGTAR

Test [9] concerns the target T5, D(1A) dopamine receptor (Homo sapiens, UniProt P21728). The test is classed as functional, cell-based.
Test [10] concerns the target Hydroxycarboxylic acid receptor 2 (Homo sapiens, UniProt Q8TDS4).
Test [11] has as its target T5, D(1A) dopamine receptor.

What is called AC50 is the concentration at which the activity in the assay is half-maximal.

A value given as a limit tells only on which side of the number the result lay.
Note: assay procedure not described here.

Estrogen receptor beta, sequence (Q92731 whole entry): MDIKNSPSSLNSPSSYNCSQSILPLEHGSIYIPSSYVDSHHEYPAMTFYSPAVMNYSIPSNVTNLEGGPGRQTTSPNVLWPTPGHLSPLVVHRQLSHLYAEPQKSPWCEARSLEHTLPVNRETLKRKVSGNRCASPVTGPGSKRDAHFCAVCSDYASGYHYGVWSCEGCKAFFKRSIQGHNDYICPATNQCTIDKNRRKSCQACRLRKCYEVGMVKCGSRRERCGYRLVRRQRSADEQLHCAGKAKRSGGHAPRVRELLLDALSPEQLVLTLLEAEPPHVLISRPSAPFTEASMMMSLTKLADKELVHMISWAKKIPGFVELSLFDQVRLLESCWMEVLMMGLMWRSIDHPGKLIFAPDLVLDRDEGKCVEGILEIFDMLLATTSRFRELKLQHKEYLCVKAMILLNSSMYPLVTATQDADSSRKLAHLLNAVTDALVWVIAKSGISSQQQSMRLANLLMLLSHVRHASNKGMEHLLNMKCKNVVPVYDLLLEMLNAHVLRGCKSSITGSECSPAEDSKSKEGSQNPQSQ
T5 sequence (P21728 whole entry): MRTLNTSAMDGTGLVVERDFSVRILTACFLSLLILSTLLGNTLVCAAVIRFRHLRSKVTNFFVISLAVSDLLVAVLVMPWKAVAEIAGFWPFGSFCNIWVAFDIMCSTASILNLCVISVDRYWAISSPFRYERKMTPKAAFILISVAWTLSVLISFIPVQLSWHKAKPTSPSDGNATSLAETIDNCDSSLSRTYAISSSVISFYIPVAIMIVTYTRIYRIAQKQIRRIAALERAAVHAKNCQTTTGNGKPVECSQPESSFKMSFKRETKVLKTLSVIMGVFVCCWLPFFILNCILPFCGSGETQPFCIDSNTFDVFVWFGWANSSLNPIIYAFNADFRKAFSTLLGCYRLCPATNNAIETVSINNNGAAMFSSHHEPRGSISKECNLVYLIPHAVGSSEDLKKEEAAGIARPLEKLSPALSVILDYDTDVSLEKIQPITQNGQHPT
Voltage-dependent L-type calcium channel subunit alpha-1C, sequence (Q13936 whole entry): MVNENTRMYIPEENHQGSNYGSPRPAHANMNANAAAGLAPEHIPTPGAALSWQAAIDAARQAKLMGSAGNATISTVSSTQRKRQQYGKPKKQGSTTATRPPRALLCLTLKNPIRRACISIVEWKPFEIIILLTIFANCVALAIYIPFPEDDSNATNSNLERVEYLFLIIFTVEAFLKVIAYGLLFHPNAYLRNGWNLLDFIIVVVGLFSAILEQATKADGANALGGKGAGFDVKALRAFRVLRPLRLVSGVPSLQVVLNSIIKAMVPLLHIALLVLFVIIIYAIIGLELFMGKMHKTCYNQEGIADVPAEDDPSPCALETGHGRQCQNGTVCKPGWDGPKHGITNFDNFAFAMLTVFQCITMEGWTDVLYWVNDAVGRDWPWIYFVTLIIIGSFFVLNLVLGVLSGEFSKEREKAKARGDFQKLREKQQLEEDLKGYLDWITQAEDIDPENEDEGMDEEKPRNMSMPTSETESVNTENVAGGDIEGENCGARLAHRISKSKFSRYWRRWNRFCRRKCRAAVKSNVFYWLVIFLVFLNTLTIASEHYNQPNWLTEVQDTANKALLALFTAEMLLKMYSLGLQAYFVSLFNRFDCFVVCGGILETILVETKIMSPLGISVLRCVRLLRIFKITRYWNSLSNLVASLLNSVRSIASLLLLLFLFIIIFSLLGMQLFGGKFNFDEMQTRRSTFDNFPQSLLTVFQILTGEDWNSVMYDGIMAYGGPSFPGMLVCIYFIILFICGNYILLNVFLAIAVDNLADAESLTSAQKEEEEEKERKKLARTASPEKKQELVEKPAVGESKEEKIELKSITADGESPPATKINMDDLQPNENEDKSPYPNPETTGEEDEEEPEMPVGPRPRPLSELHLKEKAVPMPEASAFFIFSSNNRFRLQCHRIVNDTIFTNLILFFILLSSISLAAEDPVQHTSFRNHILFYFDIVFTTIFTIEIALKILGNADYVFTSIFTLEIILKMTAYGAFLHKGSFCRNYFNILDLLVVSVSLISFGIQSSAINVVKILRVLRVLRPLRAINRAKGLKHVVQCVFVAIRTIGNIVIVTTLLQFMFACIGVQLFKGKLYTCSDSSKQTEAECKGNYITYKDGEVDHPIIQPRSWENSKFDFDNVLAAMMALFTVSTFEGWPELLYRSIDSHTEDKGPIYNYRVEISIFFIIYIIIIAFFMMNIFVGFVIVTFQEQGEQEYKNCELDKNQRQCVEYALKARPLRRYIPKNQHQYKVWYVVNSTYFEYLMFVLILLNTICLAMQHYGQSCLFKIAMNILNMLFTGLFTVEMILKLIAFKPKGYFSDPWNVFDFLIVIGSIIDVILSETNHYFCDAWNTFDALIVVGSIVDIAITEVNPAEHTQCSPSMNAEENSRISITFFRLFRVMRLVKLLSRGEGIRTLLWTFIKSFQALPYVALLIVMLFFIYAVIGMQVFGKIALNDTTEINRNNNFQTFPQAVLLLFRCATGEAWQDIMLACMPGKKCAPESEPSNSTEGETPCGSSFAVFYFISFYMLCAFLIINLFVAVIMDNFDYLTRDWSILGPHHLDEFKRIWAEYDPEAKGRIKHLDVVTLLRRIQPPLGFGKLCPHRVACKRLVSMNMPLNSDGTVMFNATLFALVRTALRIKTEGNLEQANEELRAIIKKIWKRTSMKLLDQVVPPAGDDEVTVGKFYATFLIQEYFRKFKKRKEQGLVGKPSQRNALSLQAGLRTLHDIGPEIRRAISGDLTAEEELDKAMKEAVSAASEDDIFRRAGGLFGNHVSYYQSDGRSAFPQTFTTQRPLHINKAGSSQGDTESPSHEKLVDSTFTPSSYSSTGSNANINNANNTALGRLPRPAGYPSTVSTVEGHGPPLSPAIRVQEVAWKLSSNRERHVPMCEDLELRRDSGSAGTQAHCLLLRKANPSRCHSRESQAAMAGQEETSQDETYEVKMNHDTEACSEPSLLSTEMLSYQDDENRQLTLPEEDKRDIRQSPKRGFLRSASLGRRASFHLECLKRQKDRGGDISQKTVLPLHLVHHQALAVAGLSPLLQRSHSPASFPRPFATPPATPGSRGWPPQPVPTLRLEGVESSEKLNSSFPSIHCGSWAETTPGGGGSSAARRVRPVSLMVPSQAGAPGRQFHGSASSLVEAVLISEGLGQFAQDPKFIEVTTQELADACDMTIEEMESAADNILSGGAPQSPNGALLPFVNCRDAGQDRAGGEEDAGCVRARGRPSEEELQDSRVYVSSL
5-hydroxytryptamine receptor 5A, sequence (P47898 whole entry): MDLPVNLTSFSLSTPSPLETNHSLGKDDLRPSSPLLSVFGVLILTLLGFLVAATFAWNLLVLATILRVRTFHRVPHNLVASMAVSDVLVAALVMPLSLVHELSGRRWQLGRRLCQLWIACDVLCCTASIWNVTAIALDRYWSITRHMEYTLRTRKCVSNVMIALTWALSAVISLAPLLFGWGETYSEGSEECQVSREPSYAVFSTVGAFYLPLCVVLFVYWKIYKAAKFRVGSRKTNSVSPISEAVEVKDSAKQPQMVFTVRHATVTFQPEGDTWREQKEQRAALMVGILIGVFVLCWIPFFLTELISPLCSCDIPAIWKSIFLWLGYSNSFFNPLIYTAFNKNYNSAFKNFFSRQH
Hydroxycarboxylic acid receptor 2, sequence (Q8TDS4 whole entry): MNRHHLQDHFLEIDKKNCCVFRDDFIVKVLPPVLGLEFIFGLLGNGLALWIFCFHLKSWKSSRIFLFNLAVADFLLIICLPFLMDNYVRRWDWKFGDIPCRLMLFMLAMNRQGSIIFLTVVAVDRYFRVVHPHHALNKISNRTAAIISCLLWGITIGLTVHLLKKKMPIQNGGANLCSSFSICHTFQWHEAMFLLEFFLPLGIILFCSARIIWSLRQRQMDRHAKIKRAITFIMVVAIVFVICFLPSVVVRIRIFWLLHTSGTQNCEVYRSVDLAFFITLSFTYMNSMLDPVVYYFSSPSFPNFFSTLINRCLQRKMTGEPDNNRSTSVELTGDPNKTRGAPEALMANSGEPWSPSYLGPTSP
D(1B) dopamine receptor, sequence (P21918 whole entry): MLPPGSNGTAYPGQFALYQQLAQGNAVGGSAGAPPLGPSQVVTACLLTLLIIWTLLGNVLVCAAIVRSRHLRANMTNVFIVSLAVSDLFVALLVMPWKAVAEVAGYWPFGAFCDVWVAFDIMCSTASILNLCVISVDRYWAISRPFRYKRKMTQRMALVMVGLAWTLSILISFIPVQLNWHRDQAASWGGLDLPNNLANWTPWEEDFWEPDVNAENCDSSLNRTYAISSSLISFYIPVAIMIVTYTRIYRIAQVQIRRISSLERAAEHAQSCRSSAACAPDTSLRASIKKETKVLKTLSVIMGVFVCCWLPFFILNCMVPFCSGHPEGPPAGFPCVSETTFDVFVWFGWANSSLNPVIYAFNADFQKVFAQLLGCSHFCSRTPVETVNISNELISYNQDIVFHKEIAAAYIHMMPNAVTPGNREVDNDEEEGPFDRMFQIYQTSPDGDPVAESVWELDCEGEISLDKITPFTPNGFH

Consider `CNS(=O)(=O)Cc1ccc2[nH]cc(CCN(C)C)c2c1`, for which the half-maximal activity concentration (AC50) in test [1] is > 30 µM.
As for `CC(=O)O[C@H]1CC[C@@]2(C)C(=CC[C@@H]3[C@@H]2CC[C@]2(C)C(c4cccnc4)=CC[C@@H]32)C1` [ABIRATERONE ACETATE], the AC50 in [2] and in test [3] was > 30 µM throughout.
Turning to `COC(=O)C1=C(C)NC(C)=C(C(=O)OC2CCCN(Cc3ccccc3)C2)C1c1cccc([N+](=O)[O-])c1` (stereo not given) [BENIDIPINE], in [3], the concentration at half-maximal activity (AC50) was found to be 1.9 µM.
As to `COc1ccc2c3c1O[C@H]1[C@@H](O)C=C[C@H]4[C@@H](C2)N(C)CC[C@@]341` [CODEINE], in [4], the AC50 is > 10 µM.
Consider `CCCCc1ncc(/C=C(\Cc2cccs2)C(=O)O)n1Cc1ccc(C(=O)O)cc1` [EPROSARTAN], for which the half-maximal activity concentration (AC50) in test [5] was > 10 µM; in test [6], > 10 µM; in test [7], 0.0042 µM; in [8], > 10 µM; in test [4], > 10 µM.
With `CCc1c(Cl)c(O)c(Cl)c(O)c1C(=O)O[C@H]1[C@H](O)[C@H](OC)[C@H](OC/C2=C\C=C\C[C@H](O)/C(C)=C/[C@H](CC)[C@@H](O[C@@H]3OC(C)(C)[C@@H](OC(=O)C(C)C)[C@H](O)[C@@H]3O)/C(C)=C/C(C)=C/C[C@@H]([C@@H](C)O)OC2=O)O[C@@H]1C` [FIDAXOMICIN], in [1], the AC50 was > 30 µM.
`COC(=O)C1=C(C)NC(C)=C(C(=O)OC(C)(C)CN(C)CCC(c2ccccc2)c2ccccc2)C1c1cccc([N+](=O)[O-])c1` (stereo not given) [LERCANIDIPINE]: the concentration at half-maximal activity (AC50) in test [3] is > 50 µM.
Consider `CCCc1nc(C(C)(C)O)c(C(=O)OCc2oc(=O)oc2C)n1Cc1ccc(-c2ccccc2-c2nnn[nH]2)cc1` [OLMESARTAN MEDOXOMIL], for which the AC50 was > 30 µM in test [1] and 0.0017 µM in test [7].
As to `N#Cc1ccc([C@H]2CCc3cncn32)c(F)c1` [OSILODROSTAT], the AC50 in test [5], in test [6], in test [8] and in test [4] was > 10 µM in each case.
In the case of `Clc1ccc(CCCOCCCN2CCCCC2)cc1` [PITOLISANT], the half-maximal activity concentration (AC50) in test [3] was 10.4 µM.
As to `CN1CCC(=C2c3ccccc3CCc3sccc32)CC1` [PIZOTYLINE], in test [9], half-maximal activity (AC50) was put at 0.65 µM.
`CCCN(CCC)C(=O)C(CCC(=O)O)NC(=O)c1ccccc1` (stereo not given) [PROGLUMIDE]: the AC50 in test [10] is > 10 µM.
For `CN1C(=O)C(O)N=C(c2ccccc2)c2cc(Cl)ccc21` (stereo not given) [TEMAZEPAM], the concentration at half-maximal activity (AC50) in test [1] was > 30 µM; in test [10], > 10 µM.
As to `C/C(O)=C(\C#N)C(=O)Nc1ccc(C(F)(F)F)cc1` [TERIFLUNOMIDE], the AC50 in [2] is > 30 µM.
Turning to `CC(CC(c1ccccc1)c1ccccc1)NC(C)(C)C` (stereo not given) [TERODILINE], the AC50 in [3] is > 50 µM.
Consider `CN1CCN(CC/C=C2/c3ccccc3Sc3ccc(S(=O)(=O)N(C)C)cc32)CC1` [THIOTHIXENE], for which the results for the half-maximal activity concentration (AC50) in test [1], in test [11] and in test [9] were > 30 µM, 0.019 µM and 0.98 µM, respectively.
As to `C=CCN1CCCC1CNC(=O)c1cc(S(N)(=O)=O)cc(OC)c1OC` (stereo not given) [VERALIPRIDE], the values for the AC50 in [11] and in test [9] were 0.013 µM and > 30 µM, respectively.
